Experimental data as given in patent publication US20070128217A1 (priority 2003, published 2007).

Assays:
[1] = system: rabbit serum obtained by immunizing a rabbit with the SARS-CoV strain Frankfurt 1; type: binding; parameters: Binding of a rabbit serum to linear peptides / Binding of a rabbit serum to looped peptides / Rabbit serum linear peptides / Rabbit serum looped peptides / Binding of a rabbit serum to linear peptides of protein N of SARS-CoV Urbani (Rabbit serum linear peptides) / Binding of a rabbit serum to looped/cyclic peptides of protein N of SARS-CoV Urbani (Rabbit serum looped peptides): unit not given here
[2] = system: recombinant human anti-SARS-CoV antibody 03-018; type: binding; parameters: Binding of antibody 03-018 to linear peptides of the N protein of SARS-CoV Urbani / Binding of antibody 03-018 to looped/cyclic peptides of the N protein of SARS-CoV Urbani: unit not given here
[3] = system: antibodies in sera from SARS patients (sera 1a, 1b, 2, 6, 37, 62, London, SARS-yellow, SARS-green); type: binding, human; parameters: Binding of serum 6 to linear peptides of protein X1 of SARS-CoV Urbani / Binding of serum 37 to linear peptides of protein X1 of SARS-CoV Urbani / Binding of serum 6 to looped/cyclic peptide (PEPSCAN-ELISA) / Binding of serum 37 to looped/cyclic peptide (PEPSCAN-ELISA) / Binding of serum 37 to looped/cyclic peptides of protein X1 of SARS-CoV Urbani / Binding of serum 6 to linear peptides of protein X2 / Binding of serum 37 to linear peptides of protein X2 / Binding of serum 37 to looped/cyclic peptides of protein X2 of SARS-CoV Urbani / Binding of serum 6 to linear peptides of protein M of SARS-CoV Urbani / Binding of serum 37 to linear peptides of protein M of SARS-CoV Urbani / Binding of serum 6 to looped/cyclic peptides of protein M of SARS-CoV Urbani / Binding of serum 37 to looped/cyclic peptides of protein M of SARS-CoV Urbani / Binding of serum 6 to linear peptides of protein X3 of SARS-CoV Urbani / Binding of serum 37 to linear peptides of protein X3 of SARS-CoV Urbani / Binding of serum 37 to looped/cyclic peptides of protein X3 of SARS-CoV Urbani / Binding of serum 6 to linear peptides of protein X4 of SARS-CoV Urbani / Binding of serum 37 to linear peptides of protein X4 of SARS-CoV Urbani / Binding of serum 37 to looped/cyclic peptides of protein X4 of SARS-CoV Urbani / Binding of serum 6 to linear peptides of protein X5 of SARS-CoV Urbani / Binding of serum 37 to linear peptides of protein X5 of SARS-CoV Urbani / Binding of serum 37 to looped/cyclic peptides of protein X5 of SARS-CoV Urbani / Binding of serum 6 to linear peptides of protein N of SARS-CoV Urbani / Binding of serum 37 to linear peptides of protein N of SARS-CoV Urbani / Binding of serum 6 to linear peptide (PEPSCAN-ELISA) / Binding of serum 1a to looped/cyclic peptides of protein N of SARS-CoV Urbani / Binding of serum 1b to looped/cyclic peptides of protein N of SARS-CoV Urbani / Binding of serum 2 to looped/cyclic peptides of protein N of SARS-CoV Urbani / Binding of serum 6 to looped/cyclic peptides of protein N of SARS-CoV Urbani / Binding of serum 37 to looped/cyclic peptides of protein N of SARS-CoV Urbani / Binding of serum 62 to looped/cyclic peptides of protein N of SARS-CoV Urbani / Binding of serum London to looped/cyclic peptides of protein N of SARS-CoV Urbani / Binding of serum SARS-green to looped/cyclic peptides of protein N of SARS-CoV Urbani: unit not given here
[4] = system: control sera (pooled serum of ten healthy LUMC hospital workers; commercial negative donor pooled serum from the Dutch bloodbank); type: binding, human; parameters: Binding of Control serum LUMC to linear peptides / Binding of Control serum Blood-bank to linear peptides / Binding of Control serum LUMC to looped peptides / Binding of Control Serum Blood-Bank to Looped peptides / Binding of Control serum LUMC to linear peptides of the protein M of SARS-CoV Urbani / Binding of Control serum Blood-bank to linear peptides of the protein M of SARS-CoV Urbani / Binding of Control serum LUMC to looped peptides of the protein M of SARS-CoV Urbani / Binding of Control Serum Blood-Bank to Looped peptides of the protein M of SARS-CoV Urbani: unit not given here

Sequence | Binding of a rabbit serum to linear peptides of protein N of SARS-CoV Urbani (Rabbit serum linear peptides) [1] | Binding of a rabbit serum to looped/cyclic peptides of protein N of SARS-CoV Urbani (Rabbit serum looped peptides) [1] | Binding of antibody 03-018 to linear peptides of the N protein of SARS-CoV Urbani [2] | Binding of antibody 03-018 to looped/cyclic peptides of the N protein of SARS-CoV Urbani [2] | Binding of serum 1a to looped/cyclic peptides of protein N of SARS-CoV Urbani [3] | Binding of serum 1b to looped/cyclic peptides of protein N of SARS-CoV Urbani [3] | Binding of serum 2 to looped/cyclic peptides of protein N of SARS-CoV Urbani [3] | Binding of serum 6 to looped/cyclic peptides of protein N of SARS-CoV Urbani [3] | Binding of serum 37 to looped/cyclic peptides of protein N of SARS-CoV Urbani [3] | Binding of serum 62 to looped/cyclic peptides of protein N of SARS-CoV Urbani [3] | Binding of serum London to looped/cyclic peptides of protein N of SARS-CoV Urbani [3] | Binding of serum SARS-green to looped/cyclic peptides of protein N of SARS-CoV Urbani [3] | Binding of serum SARS-yellow to looped/cyclic peptides of protein N of SARS-CoV Urbani [3] | Binding of Control Serum Blood-Bank to Looped peptides [4] | Binding of Control serum Blood-bank to linear peptides [4] | Binding of Control serum LUMC to linear peptides [4] | Binding of Control serum LUMC to looped peptides [4] | Binding of serum 1a to linear peptides of protein N of SARS-CoV Urbani [3] | Binding of serum 1b to linear peptides of protein N of SARS-CoV Urbani [3] | Binding of serum 2 to linear peptides of protein N of SARS-CoV Urbani [3] | also measured
KKPRQKRTATKQYNV | 0.3 | 0.0 | 0.1 | 0.2 | 0.3 | 0.1 | 0.4 | 0.3 | 0.6 | 0.5 | 0.5 | 0.1 | 0.4 | 0.4 | 0.6 | 0.7 | 0.5 | – | – | – | Binding of serum 1a to linear peptide (PEPSCAN-ELISA) [3]: 0.2; Binding of serum 1b to linear peptide (PEPSCAN-ELISA) [3]: 0.1; Binding of serum 2 to linear peptide (PEPSCAN-ELISA) [3]: 0.3; Binding of serum 6 to linear peptide (PEPSCAN-ELISA) [3]: 0.2; Binding of serum 37 to linear peptide (PEPSCAN-ELISA) [3]: 0.8; Binding of serum 62 to linear peptide (PEPSCAN-ELISA) [3]: 0.8; Binding of serum London to linear peptide (PEPSCAN-ELISA) [3]: 0.7; Binding of serum SARS-green to linear peptide (PEPSCAN-ELISA) [3]: 0.1; Binding of serum SARS-yellow to linear peptide (PEPSCAN-ELISA) [3]: 0.6
WPQIAQFAPSASAFF | 0.1 | 0.6 | 0.1 | 0.3 | 0.5 | 0.3 | 0.5 | 0.3 | 0.8 | 0.9 | 0.5 | 0.5 | 0.6 | – | – | – | – | 0.2 | 0.1 | 0.1 | Binding of serum 6 to linear peptides of protein N of SARS-CoV Urbani [3]: 0.2; Binding of serum 37 to linear peptides of protein N of SARS-CoV Urbani [3]: 0.6; Binding of serum 62 to linear peptides of protein N of SARS-CoV Urbani [3]: 0.5; Binding of serum London to linear peptides of protein N of SARS-CoV Urbani [3]: 0.5; Binding of serum SARS-green to linear peptides of protein N of SARS-CoV Urbani [3]: 0.3; Binding of serum SARS-yellow to linear peptides of protein N of SARS-CoV Urbani [3]: 0.7; Control Serum Blood-Bank Looped peptides [4]: 0.8; Control serum Blood-bank linear peptides [4]: 0.6; Control serum LUMC linear peptides [4]: 0.6; Control serum LUMC looped peptides [4]: 0.9
YNVTQAFGRRGPEQT | – | – | 0.1 | 0.2 | 0.3 | 0.2 | 0.3 | 0.1 | 0.5 | 0.3 | 0.3 | 0.2 | 0.3 | 0.5 | 0.7 | 0.6 | 0.5 | – | – | – | Recognition of the peptide by the rabbit serum [1]: recognized; Binding of serum 1a to linear peptide (PEPSCAN-ELISA) [3]: 0.3; Binding of serum 1b to linear peptide (PEPSCAN-ELISA) [3]: 0.1; Binding of serum 2 to linear peptide (PEPSCAN-ELISA) [3]: 0.2; Binding of serum 6 to linear peptide (PEPSCAN-ELISA) [3]: 0.2; Binding of serum 37 to linear peptide (PEPSCAN-ELISA) [3]: 0.7; Binding of serum 62 to linear peptide (PEPSCAN-ELISA) [3]: 0.7; Binding of serum London to linear peptide (PEPSCAN-ELISA) [3]: 0.5; Binding of serum SARS-green to linear peptide (PEPSCAN-ELISA) [3]: 0.6; Binding of serum SARS-yellow to linear peptide (PEPSCAN-ELISA) [3]: 0.6
LPQRQKKQPTVTLLP | 0.2 | 0.7 | 0.1 | 0.3 | – | – | – | – | – | – | – | – | – | – | – | – | – | 0.2 | 0.2 | 0.3 | Binding of serum 6 to linear peptides of protein N of SARS-CoV Urbani [3]: 0.1; Binding of serum 37 to linear peptides of protein N of SARS-CoV Urbani [3]: 0.7; Binding of serum 62 to linear peptides of protein N of SARS-CoV Urbani [3]: 0.7; Binding of serum London to linear peptides of protein N of SARS-CoV Urbani [3]: 0.5; Binding of serum SARS-green to linear peptides of protein N of SARS-CoV Urbani [3]: 0.4; Binding of serum SARS-yellow to linear peptides of protein N of SARS-CoV Urbani [3]: 0.7; Recognition of the peptide by sera of SARS-CoV infected individuals, and form (linear, looped/cyclic) in which it is recognized [3]: recognized in looped/cyclic form; Control Serum Blood-Bank Looped peptides [4]: 0.8; Control serum Blood-bank linear peptides [4]: 0.8; Control serum LUMC linear peptides [4]: 0.7; Control serum LUMC looped peptides [4]: 0.7
PKDHIGTRNPNNNAA | 0.2 | 0.2 | 0.1 | 0.2 | 0.4 | 0.3 | 0.3 | 0.3 | 0.5 | 0.3 | 0.3 | 0.2 | 0.2 | 0.5 | 0.8 | 0.8 | 0.6 | 0.3 | 0.1 | 0.3 | Binding of serum 6 to linear peptides of protein N of SARS-CoV Urbani [3]: 0.2; Binding of serum 37 to linear peptides of protein N of SARS-CoV Urbani [3]: 0.8; Binding of serum 62 to linear peptides of protein N of SARS-CoV Urbani [3]: 0.9; Binding of serum London to linear peptides of protein N of SARS-CoV Urbani [3]: 0.5; Binding of serum SARS-green to linear peptides of protein N of SARS-CoV Urbani [3]: 0.4; Binding of serum SARS-yellow to linear peptides of protein N of SARS-CoV Urbani [3]: 0.8
